The subject of series [1] is human peripheral blood mononuclear cells (PBMC). The series can be described thus: PBMC cytotoxicity assay (CellTiter-Glo). Type of series: cell-based. To be noted: pCC50, CellTiter-Glo, stimulated human PBMC, 2 days. The method, then: (§1) Compounds of the present invention were tested via high-throughput cellular assays utilizing detection of kynurenine via mass spectrometry and cytotoxicity as end-points. For the mass spectrometry and cytotoxicity assays, human peripheral blood mononuclear cells (PBMC) (PB003F; AllCells®, Alameda, Calif.) were stimulated with human interferon-γ (IFN-γ) (Sigma-Aldrich Corporation, St. Louis, Mo.) and lipopolysaccharide from Salmonella minnesota (LPS) (Invivogen, San Diego, Calif.) to induce the expression of indoleamine 2, 3-dioxygenase (IDO1). Compounds with IDO1 inhibitory properties decreased the amount of kynurenine produced by the cells via the tryptophan catabolic pathway. Cellular toxicity due to the effect of compound treatment was measured using CellTiter-Glo® reagent (CTG) (Promega Corporation, Madison, Wis.), which is based on luminescent detection of ATP, an indicator of metabolically active cells.
(§2) In preparation for the assays, test compounds were serially diluted 3-fold in
(§3) DMSO from a typical top concentration of 1 mM or 5 mM and plated at 0.5 μL in 384-well, polystyrene, clear bottom, tissue culture treated plates with lids (Greiner Bio-One, Kremsmünster, Austria) to generate 11-point dose response curves. Low control wells (0% kynurenine or 100% cytotoxicity) contained either 0.5 μL of DMSO in the presence of unstimulated (−IFN-γ/−LPS) PBMCs for the mass spectrometry assay or 0.5 μL of DMSO in the absence of cells for the cytotoxicity assay, and high control wells (100% kynurenine or 0% cytotoxicity) contained 0.5 μL of DMSO in the presence of stimulated (+IFN-γ/+LPS) PBMCs for both the mass spectrometry and cytotoxicity assays.
(§4) Frozen stocks of PBMCs were washed and recovered in RPMI 1640 medium (Thermo Fisher Scientific, Inc., Waltham, Mass.) supplemented with 10% v/v heat-inactivated fetal bovine serum (FBS) (Thermo Fisher Scientific, Inc., Waltham, Mass.), and 1× penicillin-streptomycin antibiotic solution (Thermo Fisher Scientific, Inc., Waltham, Mass.). The cells were diluted to 1,000,000 cells/mL in the supplemented RPMI 1640 medium. 50 μL of either the cell suspension, for the mass spectrometry assay, or medium alone, for the cytotoxicity assay, were added to the low control wells, on the previously prepared 384-well compound plates, resulting in 50,000 cells/well or 0 cells/well respectively. IFN- y and LPS were added to the remaining cell suspension at final concentrations of 100 ng/ml and 50 ng/ml respectively, and 50 μL of the stimulated cells were added to all remaining wells on the 384-well compound plates. The plates, with lids, were then placed in a 37 °C, 5% CO2 humidified incubator for 2 days.
(§5) Following incubation, the 384-well plates were removed from the incubator and allowed to equilibrate to room temperature for 30 minutes. For the cytotoxicity assay, CellTiter-Glo® was prepared according to the manufacturer's instructions, and 40 μL were added to each plate well. After a twenty minute incubation at room temperature, luminescence was read on an EnVision® Multilabel Reader (Perkin Elmer Inc., Waltham, Mass.). For the mass spectrometry assay, 10 μL of supernatant from each well of the compound-treated plates were added to 40 μL of acetonitrile, containing 10 μM of an internal standard for normalization, in 384-well, polypropylene, V-bottom plates (Greiner Bio-One, Kremsmunster, Austria) to extract the organic analytes. Following centrifugation at 2000 rpm for 10 minutes, 10 μL from each well of the acetonitrile extraction plates were added to 90 μL of sterile, distilled H2O in 384-well, polypropylene, V-bottom plates for analysis of kynurenine and the internal standard on the RapidFire 300 (Agilent Technologies, Santa Clara, Calif.) and 4000 QTRAP MS (SCIEX, Framingham, Mass.). MS data were integrated using Agilent Technologies' RapidFire Integrator software, and data were normalized for analysis as a ratio of kynurenine to the internal standard. […]
A general note: ATP-based viability assays read luminescence as a measure of living cells.

The target of series [2] is T1, indoleamine 2, 3-dioxygenase (IDO1) (Homo sapiens, UniProt P14902).
T1 construct: to induce the expression of indoleamine 2, 3-dioxygenase (IDO1); host or cells: human PBMC stimulated with IFN-gamma and LPS
The series can be described thus: IDO1 PBMC RapidFire MS assay (kynurenine detection). To be noted: IFN-γ/LPS stimulated human PBMC, kynurenine by MS, 2 days; read-out: PBMC PXC50 (converted). The class given is cell-based. The procedure:
as §1, §2, §3, §4, §5

Series [3] in a line: Rat oral PK studies of prodrugs at 5 mg/kg. The class given is in vivo. The note with it: analyte as labelled. The procedure: Rat oral PK studies of prodrugs at 5 mg/kg dose (solution in 100% (40 mg oleic acid+25mg Tween 80+2 mL of PBS/fresh) at 0.5 mg/mL).
[4] abbreviates: after PO dose of 5 mg/kg example 6 in male Wistar Han rat.

T1 sequence (P14902 whole entry): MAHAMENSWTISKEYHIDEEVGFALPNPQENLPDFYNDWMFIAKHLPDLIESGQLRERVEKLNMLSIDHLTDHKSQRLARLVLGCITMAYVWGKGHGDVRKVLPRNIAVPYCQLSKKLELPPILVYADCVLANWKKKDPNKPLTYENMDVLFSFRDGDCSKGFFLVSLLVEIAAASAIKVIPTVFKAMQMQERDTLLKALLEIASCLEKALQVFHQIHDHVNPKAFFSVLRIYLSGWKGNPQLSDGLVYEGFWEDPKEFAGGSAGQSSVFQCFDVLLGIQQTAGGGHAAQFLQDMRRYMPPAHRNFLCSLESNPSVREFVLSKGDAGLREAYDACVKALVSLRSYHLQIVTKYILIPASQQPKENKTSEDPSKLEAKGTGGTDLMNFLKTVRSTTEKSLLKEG

Turning to `CCCCCCCCCCCCCCCC(=O)OCC(COC(=O)CCCCCCCCCCCCCCC)OC(=O)CCCC(=O)O[C@H]1CC[C@H](N(CC(C)C)c2ccc([C@H](C)CC(=O)O)cc2Nc2ccc(Cl)nc2)CC1` [example 1, (R)-3-(4-((trans-4-((5-((1,3-bis(palmitoyloxy)propan-2-yl)oxy)-5-oxopentanoyl)oxy)cyclohexyl) (isobutyl)amino)-3-((6-chloropyridin-3-yl)amino)phenyl)butanoic acid], the “PBMC TOX PXC50” value in series [1] was <5. In addition, the IC50 in series [2] was 158 nM.

On to `CCCCCCCCCCCCCCCC(=O)OCC(COC(=O)CCCCCCCCCCCCCCC)OC(=O)CCCC(=O)O[C@H]1CC[C@H](N(CC(C)C)c2ccc([C@H](C)CC(=O)O)cc2Nc2cnc(Cl)cn2)CC1` [example 2, (R)-3-(4-((trans-4-((5-((1,3-bis(palmitoyloxy)propan-2-yl)oxy)-5-oxopentanoyl)oxy)cyclohexyl) (isobutyl)amino)-3-((5-chloropyrazin-2-yl)amino)phenyl)butanoic acid], for which the “PBMC TOX PXC50” value in series [1] is recorded as <5. The IC50 in series [2] is 251 nM. Further, the DNAUC0_20 result in series [3] (after PO dose of 5 mg/kg example 2 in male Wistar Han rat) was “not detected”.

As for `CCCCCCCCCCCCCCCC(=O)OCC(COC(=O)CCCCCCCCCCCCCCC)OC(=O)CC(C)CC(=O)O[C@H]1CC[C@H](N(CC(C)C)c2ccc([C@H](C)CC(=O)O)cc2Nc2ccc(Cl)nc2)CC1` (stereo partly drawn) [example 3, (3R)-3-(4-((trans-4-((5-((1,3-bis(palmitoyloxy)propan-2-yl)oxy)-3-methyl-5-oxopentanoyl)oxy)cyclohexyl) (isobutyl)amino)-3-((6-chloropyridin-3-yl)amino)phenyl)butanoic acid], the “PBMC TOX PXC50” value in series [1] was <5. Moreover, in series [2], the IC50 was 1260 nM.

For `CCCCCCCCCCCCCCCC(=O)OCC(COC(=O)CCCCCCCCCCCCCCC)OC(=O)CC(C)CC(=O)O[C@H]1CC[C@H](N(CC(C)C)c2ccc([C@H](C)CC(=O)O)cc2Nc2cnc(Cl)cn2)CC1` (stereo partly drawn) [example 4, (3R)-3-(4-((trans-4-((5-((1,3-bis(palmitoyloxy)propan-2-yl)oxy)-3-methyl-5-oxopentanoyl)oxy)cyclohexyl) (isobutyl)amino)-3-((5-chloropyrazin-2-yl)amino)phenyl)butanoic acid], the “PBMC TOX PXC50” value in series [1] is <5. The IC50 in series [2] was 7940 nM.

On to `CCCCCCCCCCCCCCCC(=O)OCC(COC(=O)CCCCCCCCCCCCCCC)OC(=O)CC(C)CC(=O)Oc1cc(C)cc(C)c1C(C)(C)CC(=O)O[C@H]1CC[C@H](N(CC(C)C)c2ccc([C@H](C)CC(=O)O)cc2Nc2cnc(Cl)cn2)CC1` (stereo partly drawn) [example 5, (3R)-3-(4-((trans-4-((3-(2-((5-((1,3-bis(palmitoyloxy)propan-2-yl)oxy)-3-methyl-5-oxopentanoyl)oxy)-4,6-dimethylphenyl)-3-methylbutanoyl)oxy)cyclohexyl)(isobutyl)amino)-3-((5-chloropyrazin-2-yl)amino)phenyl)butanoic acid], for which, in series [1], the “PBMC TOX PXC50” value is reported as <5. Besides, in series [2], the IC50 is 631 nM. The DNAUC0_20 entry in series [3] (after PO dose of 5 mg/kg example 5 in male Wistar Han rat) was “not detected”.

On to `CCCCCCCCCCCCCCCC(=O)OCC(COC(=O)CCCCCCCCCCCCCCC)OC(=O)CC(C)CC(=O)OCOC(=O)C[C@@H](C)c1ccc(N(CC(C)C)C2CCOCC2)c(Nc2ccc(Cl)nc2)c1` (stereo partly drawn) [example 6, 1-(1,3-bis(palmitoyloxy)propan-2-yl) 5-((((R)-3-(3-((6-chloropyridin-3-yl)amino)-4-(isobutyl(tetrahydro-2H-pyran-4-yl)amino)phenyl)butanoyl)oxy)methyl) 3-methylpentanedioate], for which the “PBMC TOX PXC50” value in series [1] is <5. Besides, the IC50 in series [2] was 3160 nM. In series [3] (setting [4]), the DNAUC0_20 result is reported as “not detected”.

As for `CC(C)CN(c1ccc([C@H](C)CC(=O)O)cc1Nc1ccc(Cl)nc1)[C@H]1CC[C@H](O)CC1` [intermediate C2, (R)-3-(3-((6-chloropyridin-3-yl)amino)-4-(((1r,4R)-4 hydroxycyclohexyl)(isobutyl)amino)-phenyl)butanoic acid], in series [1], the “PBMC TOX PXC50” value is <5.

`CC(C)CN(c1ccc([C@H](C)CC(=O)O)cc1Nc1cnc(Cl)cn1)[C@H]1CC[C@H](O)CC1` [intermediate C3]: in series [1], the “PBMC TOX PXC50” value is listed as <5.

Take `CC(C)CN(c1ccc([C@H](C)CC(=O)O)cc1Nc1ccc(Cl)nc1)C1CCOCC1` [intermediate C5]: the “PBMC TOX PXC50” value in series [1] is recorded as <5. Moreover, in series [3] (setting [4]), the DNAUC0_20 stood at 75 ng·h/mL.

Values taken from patent publication US20210186960A1, “MODULATORS OF INDOLEAMINE 2,3-DIOXYGENASE” (GLAXOSMITHKLINE INTELLECTUAL PROPERTY DEVELOPMENT LIMITED, priority 2017, published 2021).
